Experimental data reported in PubChem BioAssay AID330 (DTP/NCI, 2004).
“And” between values parts separate entries of the source, which are not always exact repeats. Equal entries are not always repeated. Inconclusive results and toxic doses are left out. The calls were made as follows: active = survival T/C of 150% or more; inactive = T/C below 125% in these data.

Tested on: P388 leukemia ip, CD2F1 mice, survival T/C
Test: NCI In Vivo Anticancer Drug Screen. Data for tumor model P388 Leukemia (intraperitoneal) in CD2F1 (CDF1) mice
Details: endpoint: median survival time, higher = longer survival
Summary of the method: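 Mice carrying the transplanted tumor received test compound or vehicle. Survival was recorded in each group, and the value is the treated-group measurement divided by that of the vehicle-treated control group.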

[1] = dose: 12.5 mg/kg/injection, schedule: Q01DX009 (ip), vehicle: saline with Tween-80
[2] = dose: 25.0 mg/kg/injection, schedule: Q01DX009 (ip), vehicle: saline with Tween-80
[3] = dose: 50.0 mg/kg/injection, schedule: Q01DX009 (ip), vehicle: saline with Tween-80
[4] = dose: 100.0 mg/kg/injection, schedule: Q01DX009 (ip), vehicle: saline with Tween-80
[5] = dose: 50.0 mg/kg/injection, schedule: Q01DX009 (ip), vehicle: saline
[6] = dose: 100.0 mg/kg/injection, schedule: Q01DX009 (ip), vehicle: saline
[7] = dose: 200.0 mg/kg/injection, schedule: Q01DX009 (ip), vehicle: saline
[8] = dose: 60.0 mg/kg/injection, schedule: Q01DX005 (ip), vehicle: saline with Tween-80
[9] = dose: 120.0 mg/kg/injection, schedule: Q01DX005 (ip), vehicle: saline with Tween-80
[10] = dose: 240.0 mg/kg/injection, schedule: Q01DX005 (ip), vehicle: saline with Tween-80
[11] = dose: 12.5 mg/kg/injection, schedule: Q01DX009 (ip), vehicle: Klucel (hydroxypropylcellulose) (HPC)
[12] = dose: 25.0 mg/kg/injection, schedule: Q01DX009 (ip), vehicle: Klucel (hydroxypropylcellulose) (HPC)
[13] = dose: 6.25 mg/kg/injection, schedule: Q01DX009 (ip), vehicle: saline
[14] = dose: 12.5 mg/kg/injection, schedule: Q01DX009 (ip), vehicle: saline
[15] = dose: 25.0 mg/kg/injection, schedule: Q01DX009 (ip), vehicle: saline
[16] = dose: 200.0 mg/kg/injection, schedule: Q01DX009 (ip), vehicle: saline with Tween-80

Measured: T/C

N#Cc1c(-c2ccccc2)c(-c2ccccc2)nn(CC(=O)O)c1=O
inactive: dose: 12.5 mg/kg/injection, schedule: Q01DX005 (ip), vehicle: sodium bicarbonate 102 % of control | dose: 25.0 mg/kg/injection, schedule: Q01DX005 (ip), vehicle: sodium bicarbonate 100 % of control | dose: 25.0 mg/kg/injection, schedule: Q04DX002 (ip), vehicle: distilled water + Tween-80 101 % of control | dose: 50.0 mg/kg/injection, schedule: Q01DX005 (ip), vehicle: sodium bicarbonate 101 % of control | dose: 50.0 mg/kg/injection, schedule: Q04DX002 (ip), vehicle: distilled water + Tween-80 100 % of control | dose: 100.0 mg/kg/injection, schedule: Q01DX005 (ip), vehicle: sodium bicarbonate 102 % of control | dose: 100.0 mg/kg/injection, schedule: Q04DX002 (ip), vehicle: distilled water + Tween-80 101 % of control | dose: 200.0 mg/kg/injection, schedule: Q01DX005 (ip), vehicle: sodium bicarbonate 92 % of control | dose: 200.0 mg/kg/injection, schedule: Q04DX002 (ip), vehicle: distilled water + Tween-80 99 % of control

COC1=C(OC)C(=O)C(C/C=C(\C)CC/C=C(\C)CC/C=C(\C)CC/C=C(\C)CC/C=C(\C)CC/C=C(\C)CC/C=C(\C)CC/C=C(\C)CC/C=C(\C)CCC=C(C)C)=C(C)C1=O
inactive: dose: 3.13 mg/kg/injection, schedule: Q01DX009 (ip), vehicle: saline with Tween-80 90 % of control and 96 % of control | dose: 6.25 mg/kg/injection, schedule: Q01DX009 (ip), vehicle: saline with Tween-80 86 % of control and 93 % of control | [1] 96 % of control | [2] 86 % of control and 87 % of control | [3] 90 % of control | [4] 86 % of control and 87 % of control

CS(=O)(=O)OCCN(CCOS(C)(=O)=O)c1ccc(N=Nc2ccccc2)cc1
active: [1] 156 % of control and 176 % of control | [2] 160 % of control

FC(F)(F)c1nc2nc(Cl)c(Cl)nc2[nH]1
inactive: dose: 25.0 mg/kg/injection, schedule: Q04DX003 (ip), vehicle: other 100 % of control | dose: 50.0 mg/kg/injection, schedule: Q04DX003 (ip), vehicle: other 109 % of control

CCN(CC)CC.COC(=O)NC#N.[CH-]1CCCCC1.[CH-]1CCCCC1.[CH-]1CCCCC1.[Cl-].[Sn+4]
inactive: dose: 3.12 mg/kg/injection, schedule: Q01DX005 (ip), vehicle: saline with Tween-80 104 % of control | dose: 6.25 mg/kg/injection, schedule: Q01DX005 (ip), vehicle: saline with Tween-80 98 % of control

ClC1(Cl)CC1[Se]c1ccccc1 (centres undefined)
inactive: [5] 100 % of control | [6] 102 % of control | [7] 99 % of control

Nc1n[nH]c(=O)c2cccnc12
inactive: dose: 50.0 mg/kg/injection, schedule: Q01DX005 (ip), vehicle: saline with Tween-80 97 % of control | dose: 100.0 mg/kg/injection, schedule: Q01DX005 (ip), vehicle: saline with Tween-80 99 % of control | dose: 200.0 mg/kg/injection, schedule: Q01DX005 (ip), vehicle: saline with Tween-80 101 % of control

CCOc1ccc(N2C(=O)C(=O)C(C#N)(c3nc4ccccc4o3)C(=O)C2=O)cc1
inactive: [8] 98 % of control | [9] 104 % of control | [10] 105 % of control

C=CCSc1nc2ccc(N=Cc3ccc([N+](=O)[O-])cc3)cc2s1
inactive: dose: 6.25 mg/kg/injection, schedule: Q01DX009 (ip), vehicle: Klucel (hydroxypropylcellulose) (HPC) 99 % of control | [11] 98 % of control | [12] 105 % of control

O=C1C2=C(Nc3ccccc3N2)OC1c1ccco1 (centres undefined)
inactive: dose: 12.5 mg/kg/injection, schedule: Q01DX005 (ip), vehicle: Klucel (hydroxypropylcellulose) (HPC) 103 % of control | dose: 25.0 mg/kg/injection, schedule: Q01DX005 (ip), vehicle: Klucel (hydroxypropylcellulose) (HPC) 100 % of control | dose: 50.0 mg/kg/injection, schedule: Q01DX005 (ip), vehicle: Klucel (hydroxypropylcellulose) (HPC) 102 % of control and 89 % of control

CCOCC(COCC)(COCC)COCC
inactive: [1] 110 % of control | [2] 110 % of control | [3] 119 % of control

COc1ccccc1C1N(C)CCCN1C
inactive: [13] 95 % of control | [14] 95 % of control | [15] 100 % of control

CCCCCC[N+]1(CC)CCCCC1
inactive: [13] 107 % of control | [14] 105 % of control | [15] 107 % of control

CN1C(=O)N(C)C2(C#N)CC2([N+](=O)[O-])C1=O (centres undefined)
inactive: [1] 89 % of control | [2] 90 % of control

O=C(/C=C/c1ccc(Cl)cc1)NC1C=Nc2ccc([N+](=O)[O-])cc2NC1=O (centres undefined)
inactive: [8] 105 % of control | [9] 100 % of control | [10] 98 % of control

O=C(O)CSc1ccc([N+](=O)[O-])cc1[N+](=O)[O-]
inactive: dose: 60.0 mg/kg/injection, schedule: Q01DX005 (ip), vehicle: Klucel (hydroxypropylcellulose) (HPC) 107 % of control | [8] 96 % of control | dose: 120.0 mg/kg/injection, schedule: Q01DX005 (ip), vehicle: Klucel (hydroxypropylcellulose) (HPC) 103 % of control | [9] 86 % of control | dose: 240.0 mg/kg/injection, schedule: Q01DX005 (ip), vehicle: Klucel (hydroxypropylcellulose) (HPC) 109 % of control | [10] 95 % of control

CS(=O)(=O)c1cc(=O)[nH]c(=O)[nH]1
inactive: [2] 90 % of control | [3] 95 % of control | [4] 100 % of control | [16] 95 % of control

CCOC(=O)c1ccc(NC(=O)Oc2cc(=O)oc3ccccc23)cc1
inactive: [8] 91 % of control | [9] 94 % of control | [10] 99 % of control

CC1=CC(=O)C(/C=C(\C)[N+](=O)[O-])=CC1=O
inactive: [11] 97 % of control | [12] 99 % of control

CN(C)c1ccc(/C=N/NC(=O)CC2CCCCC2)cc1
inactive: [8] 100 % of control | [9] 108 % of control | [10] 102 % of control

CC1=C(c2cc3ccccc3c3ccccc23)CCCC1
inactive: [4] 104 % of control | [16] 98 % of control | dose: 400.0 mg/kg/injection, schedule: Q01DX009 (ip), vehicle: saline with Tween-80 100 % of control

CC(=O)c1cc(C(=O)O)c(O)c2ccccc12
inactive: dose: 50.0 mg/kg/injection, schedule: Q01DX009 (ip), vehicle: Klucel (hydroxypropylcellulose) (HPC) 90 % of control | dose: 100.0 mg/kg/injection, schedule: Q01DX009 (ip), vehicle: Klucel (hydroxypropylcellulose) (HPC) 92 % of control

O=C(O)c1ccccc1C(=O)O.[Cu+2].[NH-]CC[NH-]
inactive: dose: 1.25 mg/kg/injection, schedule: Q04DX002 (ip), vehicle: saline with Tween-80 100 % of control | dose: 2.5 mg/kg/injection, schedule: Q04DX002 (ip), vehicle: saline with Tween-80 99 % of control | dose: 5.0 mg/kg/injection, schedule: Q04DX002 (ip), vehicle: saline with Tween-80 98 % of control

NNC(=O)c1ccc2ccccc2c1O
inactive: [15] 103 % of control | [5] 99 % of control | [6] 101 % of control | [7] 96 % of control

CCN(CC)CCOc1ccc(N=Nc2ccc(N)nc2N)cc1
inactive: [8] 102 % of control | [9] 93 % of control | [10] 101 % of control

[Ni]=[Se]
inactive: dose: 60.0 mg/kg/injection, schedule: Q01DX005 (ip), vehicle: saline 97 % of control | dose: 120.0 mg/kg/injection, schedule: Q01DX005 (ip), vehicle: saline 96 % of control | dose: 240.0 mg/kg/injection, schedule: Q01DX005 (ip), vehicle: saline 97 % of control

CCCCCCCC(=O)O[C@H]1[C@H]2[C@@H](CC1(C)C)C(=O)[C@]13O[C@H]1C(=O)[C@]1(CO1)[C@]23C
inactive: dose: 2.2 mg/kg/injection, schedule: Q01DX009 (ip), vehicle: saline with Tween-80 118 % of control | dose: 5.0 mg/kg/injection, schedule: Q01DX009 (ip), vehicle: saline with Tween-80 104 % of control and 122 % of control | dose: 7.5 mg/kg/injection, schedule: Q01DX009 (ip), vehicle: saline with Tween-80 118 % of control | dose: 10.0 mg/kg/injection, schedule: Q01DX009 (ip), vehicle: saline with Tween-80 95 % of control | dose: 10.0 mg/kg/injection, schedule: Q01DX009 (ip), vehicle: saline 105 % of control

NS(=O)(=O)c1cc([N+](=O)[O-])ccc1Cl
inactive: [3] 100 % of control | [4] 100 % of control | [16] 94 % of control

COc1ccc(CCN)cc1
inactive: [5] 101 % of control and 106 % of control

C[C](C)(C)[Ge]([O][Ge]([c]1ccccc1)[c]1ccccc1)([O][Ge]([c]1ccccc1)[c]1ccccc1)[C](C)(C)C
inactive: dose: 15.0 mg/kg/injection, schedule: Q01DX005 (ip), vehicle: saline with Tween-80 103 % of control | dose: 30.0 mg/kg/injection, schedule: Q01DX005 (ip), vehicle: saline with Tween-80 103 % of control | [8] 110 % of control and 117 % of control | [9] 117 % of control
